# Article PMC11677424, “Early-Stage IM Treatment with the Host-Derived Immunostimulant CPDI-02 Increases Curative Protection of Healthy Outbred Mice Against Subcutaneous Infection with Community-Acquired Methicillin-Resistant Staphylococcus aureus USA300” (Pharmaceutics, 2024)
# Legend:
# [1] = tested on: neutrophils (Ly6G/Ly6C+) and mononuclear phagocytes (F4/80+) in subcutaneous abscesses; assay: Proportions of neutrophils and mononuclear phagocytes in subcutaneous abscesses (quantitative IHC); format: in vivo, female outbred CD-1 mice; conditions: single IM 50 mg/kg at 6 h post-challenge; 18 h post-treatment; n = 3 mice
# [2] = tested on: pro-inflammatory cytokines/chemokines in subcutaneous abscesses; assay: Pro-inflammatory cytokines and chemokines in subcutaneous abscesses (multiplex ELISA); format: in vivo, female outbred CD-1 mice; conditions: single IM 50 mg/kg at 6 h post-challenge, n = 5
# Method: At 3 h and 18 h post-treatment (Section 2.4: single IM treatment), mice were euthanized (n = 5 per cohort per time point), then abscess and skin biopsies were collected (Section 2.5), suspended in PBS [2 mL], and homogenized in C tubes (Miltenyi Biotec 130-093-237) using a gentleMACS Dissociator (Miltenyi Biotec 130-093-235, program B). Tissue homogenates were stored at −20 °C until analysis. Homogenized abscess tissues were then analyzed using a V-PLEX Pro-inflammatory Panel 1 Mouse Kit (Meso Scale Diagnostics K15048D-1) on a MESO QuickPlex SQ 120MM (MESO, Rockville, MD, USA) to measure the inflammatory markers of the abscesses.
# [3] = Preliminary PK and distribution after IM or IV administration (LC-MS/MS); format: in vivo, female outbred CD-1 mice
# Method: Female outbred CD-1 mice (4-6 weeks old) were infected SQ with CA-MRSA, as described (Section 2.4). At 6 h post-infection, vehicle alone (PBS) or vehicle containing 12.5 mg CPDI-02/kg (IV) or 50 mg/kg (IM) and blood samples (50 µL) were collected from the submandibular vein (Medipoint Goldenrod Lancet, 5 mm) at 2, 4, 8, and 24 h post-treatment into EDTA-coated tubes containing 200 µL of acidified methanol (0.1% formic acid v/v), and immediately mixed by repeated inversion. Samples were pelleted (16,000 RCF) for 10 min, and supernatants were stored at −80 °C until analysis. At 24 h post-challenge, mice were euthanized, and rear flanks were disinfected with 70% ethanol. Abscesses (Section 2.5) and organs were excised, rinsed with deionized H2O, dried, and 50 mg sections were collected in 200 µL of acidified methanol, homogenized using a gentleMACS Dissociator (Miltenyi Biotec 130-093-235, Tokyo, Japan), and stored at −80 °C until analysis.
# Peptide quantitation was performed using a Waters ACQUITY UPLC system coupled to a Xevo TQ-XS Tandem Quadrupole Mass Spectrometer with electrospray ionization. […] The following MRM m/z values were monitored: 621.4 > 84 and 621.4 > 100 for the analyte and IS, respectively. Peptide concentrations were determined using analyte-to-IS peak area ratios. […]
# [4] = tested on: CA-MRSA USA300; conditions: cited from earlier work
# Excerpt: Consistent with protection, SQ treatment with CPDI-02 increased local levels of IL-1β, IL-6, and CXCL1 and NP recruitment to the abscess. In contrast, SQ treatment of C5aR1 knockout mice with CDPI-02 had no effect against SQ infection with CA-MRSA up to ...
# [5] = physchem; conditions: aqueous buffer
compound,measurement,setting,value
CSCC[C@H](NC(=O)[C@H](CC(=O)O)NC(=O)[C@H](CCCCN)NC(=O)[C@H](Cc1ccccc1)NC(=O)[C@H](CO)NC(=O)[C@@H](N)Cc1ccc(O)cc1)C(=O)N1CCC[C@H]1C(=O)N(C)[C@@H](CC(C)C)C(=O)N[C@H](C)C(=O)N[C@@H](CCCNC(=N)N)C(=O)O [CPDI-02],increase of ratio of MPs (F4/80+) to total cells (DAPI+) vs vehicle alone,[1],4 fold
same,increase of ratio of mononuclear phagocytes to neutrophils (Ly6G/Ly6C+) vs vehicle alone,[1],7 fold
same,ratio of NPs (Ly6G/Ly6C+) to total cells (DAPI+) in subcutaneous abscesses vs vehicle alone,[1],similar
same,"levels of IFN-γ, IL-2, IL-4, IL-5, IL-6, IL-10, IL-12p70, CXCL-1 [KC/GRO], TNF-α in subcutaneous abscesses",[2]; 3 h and 18 h post-treatment,no effect
same,levels of IL-1β in subcutaneous abscesses vs vehicle alone,[2]; 3 h post-treatment,decreased
same,"relative distribution to heart, lungs, liver, kidneys, spleen or brain, IM vs IV","[3]; IM 50 mg/kg vs IV 12.5 mg/kg, 18 h post-treatment, n = 3 to 5",no effect
same,plasma concentrations after IM vs IV administration,"[3]; abscess-bearing female CD-1 mice, IM 50 mg/kg vs IV 12.5 mg/kg at 6 h post-challenge, 2, 4, 8, 24 h post-treatment, n = 5",increased
same,effect against SQ infection with CA-MRSA vs inactive scCPDI-02,"[4]; C5aR1 knockout mice, SQ treatment, up to 48 h post-challenge",no effect
same,"local levels of IL-1β, IL-6 and CXCL1 and NP recruitment to the abscess","[4]; outbred mice, prophylactic SQ treatment",increased
same,"maximum abscess surface area, CA-MRSA load per gram of tissue and time to abscess resolution vs inactive scCPDI-02","[4]; outbred mice, repeat SQ treatment before and after SQ challenge, three injections total, 12.5 mg/kg",significantly decreased
same,solubility,[5],~100 mg/mL
